# Experimental data as given in US6245757A, “Use of progestins to treat ischemic event” (priority 1998, dated 2001).
# How the values were obtained:
# GABA receptor [1] = details: physiological levels of PROG, in vivo; cited from earlier work
# global cerebral ischemia = details: 7-day pretreatment; cited from earlier work
# GABA receptor [2] = details: neurons; cited from earlier work
# [3] = circulating PROG; cited from earlier work
# [4] = system: central nervous system (CNS); details: cited from earlier work
# in vivo = details: rat, ip, 4 mg/kg, plasma level of PROG
# [5] = system: middle cerebral artery occlusion rats; details: one hour prior to MCAO; early stages of ischemia; cited from earlier work
# [6] = system: middle cerebral artery occlusion (MCAO) rats; assay: Infarct volume after MCAO (TTC staining), Example 1; type: in vivo, Male Wistar rats; details: for % Infarct volume (to the contralateral hemisphere): 48 h post MCAO, n=12, mean ± S.E.M., DMSO group 35.1 ± 4.5; for decrease of percent infarct volume compared with DMSO treated control group: 4.0 mg/kg i.p.
# [7] = system: middle cerebral artery occlusion (MCAO) rats; assay: Neurological deficit score after MCAO (Zea Longa scale 0-4), Example 1; details: for Neurologic Score: scale 0-4, mean ± S.E.M., DMSO group 1.8 ± 0.1
# Description: (§1) Briefly, the right common carotid artery, external carotid artery (ECA) and internal carotid artery (ICA) were exposed. A length of 4-0 monofilament nylon suture (18.5-19.5 mm), determined by the animal weight, with its tip rounded by heating near a flame, was advanced from the ECA into the lumen of the ICA until it blocked the origin of the MCA. Two hours after MCAO, animals were reanaesthetized with halothane and reperfusion was performed by withdrawal of the suture until the tip cleared the lumen of the ICA.
# (§2) Four randomly assigned populations of animals were tested. Group 1 (n=12): water soluble PROG (PROG with balance of 2-hydroxypropyl-β-cyclodextrin) (Sigma Chemical Co., St Louis, Mo.) dissolved in saline (4.0 mg/ml) was injected intraperitoneally (4.0 mg/kg) 30 minutes before MCAO. The remaining injections (all 4.0 mg/kg) were given at 6 and 24 hours after MCAO, respectively. Group 2 (n =12): the experimental protocol was identical to that in Group 1, except that PROG (4-pregnene-3,20-dione) (Sigma Chemical Co., St Louis, Mo.) dissolved in dimethyl sulfoxide (DMSO; Sigma Chemical Co., St Louis, Mo.) (8.0 mg/ml), instead of water soluble PROG, was administered. Group 3 (n=12): the experimental protocol was identical to that in group 2, except that the initial injection was delayed to the onset of reperfusion (2 hours after MCAO). Group 4 (n=12): the experimental protocol was the same as that in Group 2, except that the same volume of DMSO without PROG (0.5 ml/kg) as in Group 2 was administered.
# (§3) All animals were weighed before surgery for MCAO and at 24 and 48 hours after MCAO. Neurological abnormalities were also evaluated 24 and 48 hours after MCAO using the scale (0-4) described by Z. Longa et al., Stroke, 20, 84 (1989). Rats were held gently by the tail, suspended one meter above the floor, and observed for forelimb flexion. […] Rats that consistently flexed the left forelimb (contralateral to the injured hemisphere) accompanying flexion of the wrist toward left without any other abnormality were graded 1. Rats that were allowed to move about freely and circled toward the paretic side consistently were graded 2. Rats that fell down to the left losing the ability to walk were graded 3.
# (§4) For parametric variables, a one way ANOVA was applied to determine the statistical significance of differences among groups. If a significant difference was detected, then two sample t-tests with Bonferroni correction were performed to evaluate differences between control and PROG treated groups. Paired t-tests were performed on physiological parameters before and after administration of PROG and DMSO within each group. Values presented in this study are mean ±S.E.M. A probability value less than 0.05 was considered significant.
# cerebral contusion = details: one hour after the cerebral trauma; cited from earlier work
# [8] = Physiological variables (blood pH, pCO2, pO2, blood pressure) before and after injection, rat MCAO; type: in vivo, Male Wistar rats; details: for Mean Blood Pressure / pCO2 / pH / pO2: n=12, mean ± S.E.M.
# [9] = Body weight loss after MCAO, Example 1; details: for Body weight loss: mean ± S.E.M.
# Description: as §1, §2, §3, §4
# stroke patients = details: cited from earlier work
# [10] = both groups of regular PROG treated animals (pre- and post-MCAO), 4.0 mg/kg i.p.
# [11] = 20 min post-injection, 4.0 mg/kg i.p. 30 min before MCAO
# [12] = 20 min post-injection, 4.0 mg/kg i.p. 2 h after MCAO
# [13] = pre-injection, group 4.0 mg/kg i.p. 30 min before MCAO
# [14] = pre-injection, group 4.0 mg/kg i.p. 2 h after MCAO
smiles,measurement,setting,value
"CC(=O)[C@H]1CC[C@H]2[C@@H]3CCC4=CC(=O)CC[C@]4(C)[C@H]3CC[C@]12C [PROG, 4-pregnene-3,20-dione]",GABA-mediated inhibition of neuronal activity,GABA receptor [1],enhance GABA-mediated inhibition of neuronal activity
same,neuroprotective activity following global cerebral ischemia,global cerebral ischemia,exhibited neuroprotective activity following global cerebral ischemia only after a 7-day pretreatment regimen
same,GABA-evoked Cl currents,GABA receptor [2],potentiating GABA-evoked Cl currents
same,passage through the blood-brain barrier,[3],easily passes through the blood-brain barrier
same,CNS actions,[4]; PROG and its related metabolites,"CNS depressants and exert anesthetic, anticonvulsant and anxiolytic actions"
same,anticonvulsant activity,[4]; in vivo,possesses anticonvulsant activity
same,concentration at 4 h,in vivo,41.9 ng/mL
same,brain edema,[5],reduce brain edema in the early stages of ischemia
same,% Infarct volume (to the contralateral hemisphere),"[6]; 4.0 mg/kg i.p. 30 min before, 6 and 24 h after MCAO",21.5 ± 2.9%
same,% Infarct volume (to the contralateral hemisphere),[6]; 4.0 mg/kg i.p. first dose 2 h after MCAO,23.1 ± 2.3%
same,decrease of percent infarct volume compared with DMSO treated control group,"[6]; delayed treated (2 h after MCAO), P=0.027",34%
same,decrease of percent infarct volume compared with DMSO treated control group,"[6]; first dose 30 min before MCAO, DMSO dissolved PROG P=0.018, water soluble PROG P=0.290 (not significant)",39%
same,effectiveness 2 hours after onset of MCAO versus prior to onset,[6]; 2 h after onset vs prior to onset of MCAO,as effective
same,Neurologic Score,"[7]; 24 h after MCAO, 4.0 mg/kg i.p. first dose 30 min before MCAO",1.4 ± 0.1 score
same,Neurologic Score,"[7]; 24 h after MCAO, 4.0 mg/kg i.p. first dose 2 h after MCAO",1.4 ± 0.1 score
same,Neurologic Score,"[7]; 48 h after MCAO, 4.0 mg/kg i.p. first dose 30 min before MCAO",1.4 ± 0.1 score
same,Neurologic Score,"[7]; 48 h after MCAO, 4.0 mg/kg i.p. first dose 2 h after MCAO",1.4 ± 0.1 score
same,neurological function compared with DMSO group,[7]; [10],improved neurological function
same,absorption by the intraperitoneal route,"4.0 mg/kg i.p., DMSO dissolved, n=2",absorbed rapidly
same,plasma level of PROG,"rat, in vivo, ip, 4 mg/kg, 4 h",70.7 ng/mL
same,edema resulting from cerebral contusion,cerebral contusion,reduced edema
same,Mean Blood Pressure,[8]; [11],95 ± 2 mm Hg
same,pCO2,[8]; [11],39 ± 2 mm Hg
same,pH,[8]; [11],7.43 ± 0.02
same,pO2,[8]; [11],135 ± 5 mm Hg
same,Mean Blood Pressure,[8]; [12],103 ± 3 mm Hg
same,pCO2,[8]; [12],36 ± 1 mm Hg
same,pH,[8]; [12],7.44 ± 0.01
same,pO2,[8]; [12],134 ± 3 mm Hg
same,physiological variables before and after injection,"[8]; before vs 20 min after initial treatment, 4.0 mg/kg i.p.",no significant difference
same,Mean Blood Pressure,[8]; [13],94 ± 3 mm Hg
same,pCO2,[8]; [13],41 ± 1 mm Hg
same,pH,[8]; [13],7.44 ± 0.01
same,pO2,[8]; [13],134 ± 4 mm Hg
same,Mean Blood Pressure,[8]; [14],107 ± 3 mm Hg
same,pCO2,[8]; [14],36 ± 1 mm Hg
same,pH,[8]; [14],7.46 ± 0
same,pO2,[8]; [14],133 ± 4 mm Hg
same,Body weight loss,"[9]; 24 h after MCAO, 4.0 mg/kg i.p. first dose 30 min before MCAO, DMSO group 40.4 ± 3.4",31.1 ± 2.6 grams
same,Body weight loss,"[9]; 24 h after MCAO, 4.0 mg/kg i.p. first dose 2 h after MCAO, DMSO group 40.4 ± 3.4",33.8 ± 1.9 grams
same,Body weight loss,"[9]; 48 h after MCAO, 4.0 mg/kg i.p. first dose 30 min before MCAO, DMSO group 19.7 ± 2.9",8.8 ± 2.2 grams
same,Body weight loss,"[9]; 48 h after MCAO, 4.0 mg/kg i.p. first dose 2 h after MCAO, DMSO group 19.7 ± 2.9",10.0 ± 3.1 grams
same,body weight loss compared with DMSO group,[9]; [10],reduced body weight loss
C[C@@H]1C[C@H]2[C@@H]3CCC4=CC(=O)C=C[C@]4(C)[C@@]3(F)[C@@H](O)C[C@]2(C)[C@@]1(O)C(=O)CO [dexamethasone],"outcome, steroid vs non-steroid treated patients",stroke patients,no significant difference in outcome
C[C@H]1C[C@@H]2[C@H]([C@@H](O)C[C@@]3(C)[C@H]2CC[C@]3(O)C(=O)CO)[C@@]2(C)C=CC(=O)C=C12 [methylprednisolone],"outcome, steroid vs non-steroid treated patients",stroke patients,no significant difference in outcome
